# In publication PMC5153397 (EJNMMI Research, 2016):
# Where two headings read alike, the source gives them in different places.
# Tests used:
# [1] = cited from earlier work
# Excerpt: Table 3 Absorbed kidney dose and effective dose of ^18F-labeled tracer and metal-labeled exendin PET and SPECT tracers | column: Kidney dose [mSv/MBq]; Effective dose [mSv/MBq]
# GLP-1R in the islets [2] = molecular target: T1, GLP-1R in the islets (Rattus norvegicus, UniProt P32301); assay: Ex vivo autoradiography of rat pancreas; assay type: in vivo
# T1 construct: We dissected a rat pancreas and brain and froze them immediately after dissection; from tissue; host or cells: rat pancreas (islets): in vivo injection followed by ex vivo autoradiography, and frozen sections in vitro
# T1 sequence (P32301 22-463): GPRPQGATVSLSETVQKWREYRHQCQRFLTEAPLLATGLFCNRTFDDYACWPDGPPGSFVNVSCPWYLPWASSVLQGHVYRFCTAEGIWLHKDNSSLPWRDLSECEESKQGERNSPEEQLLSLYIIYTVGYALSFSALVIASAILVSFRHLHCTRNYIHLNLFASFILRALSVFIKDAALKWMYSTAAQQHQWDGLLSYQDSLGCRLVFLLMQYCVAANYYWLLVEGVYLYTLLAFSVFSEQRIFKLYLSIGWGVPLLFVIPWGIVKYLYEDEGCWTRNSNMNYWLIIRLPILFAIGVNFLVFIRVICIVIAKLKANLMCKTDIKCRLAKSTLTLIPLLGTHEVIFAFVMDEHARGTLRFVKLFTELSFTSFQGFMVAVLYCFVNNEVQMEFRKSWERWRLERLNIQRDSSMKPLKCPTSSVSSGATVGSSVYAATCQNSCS
# Experimental: Rats were anesthetized with isoflurane/O2 and injected (i.v.) with [^18F]exendin-4 (radioactivity 23 ± 5 MBq/kg, mass 2 ± 1 μg/kg). After injection, animals were allowed to recover from the anesthesia (except animal sacrificed 15 min p.i.). We further investigated tracer distribution in the brain by injecting one rat with a highly radioactive dose (50 MBq) of [^18F]exendin-4. Animals were sacrificed at 15, 30, 60, 120, 240, and 360 min (N = 2–11 rats/time point). Blood was extracted, and selected organs were dissected and weighed. Tissue radioactivity was measured with a γ-counter (Wizard, PerkinElmer, Turku, Finland). Tracer specificity was tested by co-injecting radiolabeled exendin-4 with an excess of cold exendin-3 (3 mg/kg) (Peptide Specialty Laboratories GmbH). Measurements were corrected for radionuclide decay, and results were reported as the percentage of the injected dose of radioactivity per gram of tissue (%ID/g).
# The kidney, pancreas, and brain were sectioned and exposed to imaging plates (Fuji BAS-TR2025; Fuji Photo Film Co., Tokyo, Japan) for approximately 4 h. Imaging plates were scanned with a BAS-5000 scanner (Fuji Photo Film Co.) and the images were analyzed with AIDA 4.5 software (Raytest, Isotopenmessgeräte, Straubenhardt, Germany). Three pancreatic sections per rat were analyzed (N = 2–8 rats/time point). We determined the mean density values (photostimulated luminescence per square millimeter, PSL/mm^2) of ten prominently labeled islets and of the exocrine tissue and corrected for background noise. Finally, the islet-to-exocrine tissue ratio was calculated. […] The pancreatic sections used for autoradiography were then stained with insulin antibody (1’ mouse-anti-insulin, Nordic Biosite, Täby, Sweden, 2’ MAHC1 mouse probe, Biocare Medical, Concord, CA, USA), counterstained with hematoxylin, and imaged with a Slide Scanner (Pannoramic 250 F, 3DHistech, Budapest, Hungary).
# [3] = molecular target: T2, GLP1-R-rich areas of rat brain (Rattus norvegicus, UniProt P32301); settings: in vivo
# T2 construct: We dissected a rat pancreas and brain and froze them immediately after dissection; from tissue; host or cells: rat brain (GLP-1R-rich areas): in vivo injection with ex vivo read-out, and frozen sections in vitro
# T2 sequence (P32301 22-463): T1 sequence (P32301 22-463)
# Experimental: The in vivo kinetics of [^18F]exendin-4 were evaluated with the Inveon Multimodality PET/CT scanner (Siemens, Knoxville, TN, USA). Rats were anesthetized with isoflurane/O2 and injected intravenously (i.v.) with [^18F]exendin-4 (radioactivity 23 ± 5 MBq/kg, mass 2 ± 1 μg/kg). PET scans were acquired for up to 6 h (dynamic 0–60 min; static 210–240 min and 330–360 min; N = 2–5 rats/scan). The data were reconstructed with the ordered subset expectation maximization OSEM2D algorithm. Analyses were performed with Inveon Research Workplace 3 software (Siemens), after defining the volumes of interest (VOIs) on selected tissues.
# Rats were anesthetized with isoflurane/O2 and injected (i.v.) with [^18F]exendin-4 (radioactivity 23 ± 5 MBq/kg, mass 2 ± 1 μg/kg). […] Tissue radioactivity was measured with a γ-counter (Wizard, PerkinElmer, Turku, Finland). […] Measurements were corrected for radionuclide decay, and results were reported as the percentage of the injected dose of radioactivity per gram of tissue (%ID/g).
# The kidney, pancreas, and brain were sectioned and exposed to imaging plates (Fuji BAS-TR2025; Fuji Photo Film Co., Tokyo, Japan) for approximately 4 h. Imaging plates were scanned with a BAS-5000 scanner (Fuji Photo Film Co.) and the images were analyzed with AIDA 4.5 software (Raytest, Isotopenmessgeräte, Straubenhardt, Germany). […] Finally, the islet-to-exocrine tissue ratio was calculated. […]
# [4] = pig, in vivo
# Experimental: In addition, the stability of [^18F]exendin-4 was determined in pig plasma. Prior to blood sampling, animals were anesthetized (midazolam 1 mg/kg, xylazine 4 mg/kg intramuscular), connected to a respirator, and ventilated mechanically. Anesthesia was maintained with an i.v. infusion of propofol (10–20 mg/kg/h) and fentanyl (4–8 μg/kg/h). Vital signs were monitored throughout the study. Pigs were injected (radioactivity 1.2 ± 0.2 MBq/kg, mass 0.14 ± 0.04 μg/kg) and blood was sampled at 5, 15, 30, 60, and 180 min p.i. (N = 3 samples/time point). Plasma was treated and analyzed as described above.
# [5] = design: species or system human
# Experimental: Absorbed doses were calculated with OLINDA/EXM1.0 software, which includes radionuclide information and a selection of human body phantoms. Rat ex vivo biodistributions were estimated by integrating the area under the time–activity curves. The obtained residence times were converted into corresponding human values by multiplying with organ-specific factors that scaled organs to body weights, as follows: (W TB,rat/W Organ,rat) × (W Organ,human/W TB,human), where W TB,rat and W TB,human are the total body weights of rats and humans (70-kg male), respectively; and W Organ,rat and W Organ,human are the organ weights of rats and humans (70-kg male), respectively.
# [6] = molecular target: T3, GLP-1R in pancreatic islets (Rattus norvegicus, UniProt P32301); assay: In vitro binding in rat pancreas sections (autoradiography)
# T3 construct: We dissected a rat pancreas and brain and froze them immediately after dissection; from tissue; host or cells: rat pancreas (islets): in vivo injection followed by ex vivo autoradiography, and frozen sections in vitro
# T3 sequence (P32301 22-463): T1 sequence (P32301 22-463)
# Experimental: (§1) We acquired a piece of human pancreas that was frozen immediately after surgery. We dissected a rat pancreas and brain and froze them immediately after dissection. Prior to incubations with ligand, the tissue sections of human and rat pancreas and GLP-1R-rich areas from rat brain [19] were incubated for 30 min with 1% BSA in PBS (pH 7.4). Then, sections were incubated for 60 min with various concentrations of [^18F]exendin-4 (range 2.5–20 nM) in vitro. To investigate tracer specificity, sections were incubated for 30 min with an excess of cold exendin-3 prior to adding [^18F]exendin-4. Sections were then washed and exposed to imaging plates, as described above (ex vivo autoradiography). Next, sections were stained and processed, as described above.
# GLP-1R in the islets [7] = molecular target: T4, GLP-1R in the islets (Homo sapiens, UniProt P43220); assay: In vitro binding in human pancreas sections (autoradiography); settings: human pancreatic tissue sections
# T4 construct: We acquired a piece of human pancreas that was frozen immediately after surgery; from tissue; host or cells: human pancreas, frozen surgical specimen, sections
# Experimental: as §1
# [8] = molecular target: T5, GLP-1R-rich areas from rat brain (Rattus norvegicus, UniProt P32301); assay: In vitro binding in rat brain sections (autoradiography); settings: lateral septum, 1.25 nM (Fig. 7)
# T5 construct: We dissected a rat pancreas and brain and froze them immediately after dissection; from tissue; host or cells: rat brain (GLP-1R-rich areas): in vivo injection with ex vivo read-out, and frozen sections in vitro
# T5 sequence (P32301 22-463): T1 sequence (P32301 22-463)
# Experimental: as §1, with “Then, sections were incubated for 60 min with various concentrations of [^18F]exendin-4 (range 2.5–20 nM) in vitro.” left out
# [9] = design: method as in PMID 12629557; settings: rat; cited from earlier work
# T4 sequence (P43220 24-463): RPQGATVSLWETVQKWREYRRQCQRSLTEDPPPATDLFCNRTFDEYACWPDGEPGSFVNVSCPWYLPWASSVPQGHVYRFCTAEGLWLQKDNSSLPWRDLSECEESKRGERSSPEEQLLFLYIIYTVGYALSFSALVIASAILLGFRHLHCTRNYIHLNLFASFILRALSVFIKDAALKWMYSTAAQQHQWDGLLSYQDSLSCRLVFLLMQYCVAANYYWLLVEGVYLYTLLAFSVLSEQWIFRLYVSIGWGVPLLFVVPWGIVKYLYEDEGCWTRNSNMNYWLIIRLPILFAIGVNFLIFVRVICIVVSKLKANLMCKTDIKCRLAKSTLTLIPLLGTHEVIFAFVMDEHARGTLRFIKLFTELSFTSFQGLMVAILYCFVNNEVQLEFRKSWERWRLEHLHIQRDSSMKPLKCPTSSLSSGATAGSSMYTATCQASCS
substance,measurement,setting,value
"[^64Cu]NODAGA-exendin-4: metal-labeled exendin PET tracer, ref 3",Effective dose,[1],0.074 mSv/MBq
same,Kidney dose,[1],1.48 mSv/MBq
[^111In]DTPA-exendin-4: metal-labeled exendin SPECT tracer,Effective dose,[1],0.155 mSv/MBq
same,Kidney dose,[1],4.48 mSv/MBq
"^18F-labeled [Nle^14,Lys^40]exendin-4 [[^18F]exendin-4]",islet labeling with blocking,"GLP-1R in the islets [2]; co-injected with excess cold exendin-3, ex vivo autoradiography",not visible
same,islet-to-exocrine tissue ratio,"GLP-1R in the islets [2]; ex vivo autoradiography, PSL/mm^2 of ten islets vs exocrine tissue, N = 2–8 rats/time point",increased over time
same,tracer uptake in pancreatic islets,"GLP-1R in the islets [2]; i.v., ex vivo autoradiography, 60 min p.i. (Fig. 5a), verified by insulin staining",tracer uptake was observed
same,blood–brain barrier crossing,[3],did not cross the blood–brain barrier
same,arrhythmia after administration,[4],arrhythmia was observed
same,blood pressure after administration,[4],decreased
same,body temperature after administration,[4],41 °C
same,heart rate after administration,[4],230–250 beats/min
same,Effective dose,[5],0.021 mSv/MBq
same,"absorbed radiation dose, LLI (lower large intestine) wall",[5],0.003 mSv/MBq
same,"absorbed radiation dose, ULI (upper large intestine) wall",[5],0.005 mSv/MBq
same,"absorbed radiation dose, adrenal glands",[5],0.016 mSv/MBq
same,"absorbed radiation dose, brain",[5],0.004 mSv/MBq
same,"absorbed radiation dose, breasts",[5],0.004 mSv/MBq
same,"absorbed radiation dose, gallbladder wall",[5],0.011 mSv/MBq
same,"absorbed radiation dose, heart wall",[5],0.010 mSv/MBq
same,"absorbed radiation dose, liver",[5],0.026 mSv/MBq
same,"absorbed radiation dose, lungs",[5],0.071 mSv/MBq
same,"absorbed radiation dose, muscle",[5],0.005 mSv/MBq
same,"absorbed radiation dose, osteogenic cells",[5],0.045 mSv/MBq
same,"absorbed radiation dose, ovaries",[5],0.003 mSv/MBq
same,"absorbed radiation dose, pancreas",[5],0.023 mSv/MBq
same,"absorbed radiation dose, red bone marrow",[5],0.009 mSv/MBq
same,"absorbed radiation dose, skin",[5],0.003 mSv/MBq
same,"absorbed radiation dose, small intestine",[5],0.005 mSv/MBq
same,"absorbed radiation dose, spleen",[5],0.022 mSv/MBq
same,"absorbed radiation dose, stomach wall",[5],0.007 mSv/MBq
same,"absorbed radiation dose, testes",[5],0.001 mSv/MBq
same,"absorbed radiation dose, thymus",[5],0.005 mSv/MBq
same,"absorbed radiation dose, thyroid",[5],0.003 mSv/MBq
same,"absorbed radiation dose, total body",[5],0.009 mSv/MBq
same,"absorbed radiation dose, urinary bladder wall",[5],0.002 mSv/MBq
same,"absorbed radiation dose, uterus",[5],0.003 mSv/MBq
same,islet labeling in vitro,"[6]; 60 min incubation, 2.5 nM (Fig. 6), autoradiography",islet labeling was observed
same,islet labeling in vitro with blocking,[6]; excess of cold exendin-3 added,not detected
same,tracer binding in human pancreatic islets with blocking,GLP-1R in the islets [7]; excess cold exendin-3 added,no [^18F]exendin-4 binding was observed
same,tracer binding in human pancreatic islets,"GLP-1R in the islets [7]; various concentrations (2.5–20 nM), 60 min, autoradiography, verified by insulin immunostaining",clearly visible
same,labeling of GLP-1R areas in brain in vitro,[8],clearly labeled
exendin-4,blood–brain barrier crossing,[9],crossed the blood–brain barrier
